Reference: EP4578856A1, “HETEROCYCLIC COMPOUND” (Ubience Inc., priority 2022, dated 2024)

Experiments:
FAK protein [1] = molecular target: T1, FAK protein (Homo sapiens, UniProt Q05397); assay: FAK kinase inhibitory activity, mobility shift assay (MSA, Carna Biosciences); assay type: biochemical; set-up: GST (N); purchased Carna Biosciences, Inc; host or cells: baculovirus expression system; conditions: inhibition rate at 30 nM; reaction time 5 hours
Procedure: The FAK kinase inhibitory activity was measured using a mobility shift assay (MSA) provided by Carna Biosciences, Inc.
The test compound was dissolved in DMSO to prepare a 3 µM solution. The solution was further diluted 25 times with an assay buffer (20 mmol/L HEPES, 0.01%Triton (registered trademark) X-100, 1 mmol/L DTT, pH 7.5) to obtain a test compound solution.
Incomplete human FAK kinase was expressed by fusing 376 to 1052 amino acids of Accession No. NP_722560.1 with GST at the N-terminus using the baculovirus expression system. The GST-FAK was purified by glutathione sepharose chromatography. A 4-fold concentration substrate (Blk/Lyntide, 1000 nmol/L)/ATP (25 µmol/L)/metal solution (Mg, 5 mmol/L) was prepared with kit buffer (20 mmol/L HEPES, 0.01% Triton (registered trademark) X-100, 5 mmol/L DTT, pH 7.5). A 2-fold concentration kinase solution was prepared with assay buffer.
In the same manner as described in Test Example 1, tests and evaluation of inhibitory activity and data analysis were performed. The reaction time was set to 5 hours. […]
Target sequence in this assay (Q05397 376-1052): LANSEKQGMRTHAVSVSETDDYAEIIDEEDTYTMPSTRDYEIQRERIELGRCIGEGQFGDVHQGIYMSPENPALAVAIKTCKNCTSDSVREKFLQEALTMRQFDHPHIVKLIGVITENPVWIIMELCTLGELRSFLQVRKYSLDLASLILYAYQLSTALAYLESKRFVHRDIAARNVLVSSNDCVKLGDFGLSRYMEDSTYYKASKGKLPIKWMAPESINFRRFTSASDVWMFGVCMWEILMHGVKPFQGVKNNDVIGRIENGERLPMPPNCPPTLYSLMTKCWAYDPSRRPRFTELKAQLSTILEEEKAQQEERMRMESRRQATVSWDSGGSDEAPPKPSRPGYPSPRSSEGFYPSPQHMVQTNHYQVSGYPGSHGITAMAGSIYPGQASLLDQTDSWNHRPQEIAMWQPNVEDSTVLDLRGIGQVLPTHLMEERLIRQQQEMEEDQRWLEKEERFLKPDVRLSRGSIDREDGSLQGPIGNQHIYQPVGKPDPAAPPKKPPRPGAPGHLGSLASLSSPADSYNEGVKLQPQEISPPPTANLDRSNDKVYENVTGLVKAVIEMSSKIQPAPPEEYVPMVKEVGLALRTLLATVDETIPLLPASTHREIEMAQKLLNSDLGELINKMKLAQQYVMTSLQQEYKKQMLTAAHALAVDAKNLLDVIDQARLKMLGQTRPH

FAK protein [2] = molecular target: T1, FAK protein; assay: Degradation inducing activity of FAK protein in PA-1 cells, Western blotting (Simple Western JESS); assay type: cell-based; set-up: endogenous in cells; host or cells: PA-1 (ATCC CRL-1572); conditions: at 10 µM, 24 hours
Procedure: In vitro degradation inducing activity of FAK protein of compounds of Examples was evaluated by Western Blotting (WB).
By a test compound, 10 mM DMSO solution was prepared, which was used as a 10 µM test compound solution. Further, the solution was diluted 10-fold with DMSO to prepare a 1 mM solution, which was used as a 1 µM test compound solution.
PA-1 cells (ATCC: CRL-1572, Lot: 70055709) were cultured in Eagle's Minimum Essential Medium supplemented with 10% FBS and 1% Penicillin/Streptomycin. The PA-1 cells seeded in a 24 well plate at 200,000 cells/well/1 mL were cultured for 24 hours, and then 1 µL of DMSO or a test compound solution was added thereto and treatment was performed for 24 hours. Cells were harvested and lysed for 20 minutes on ice using RIPA lysis buffer (Sigma, Cat#R0278) supplemented with protease inhibitor cocktail (Sigma, Cat#P8340; Roche, Cat#P11873580001), and phosphatase inhibitor cocktail (Sigma, Cat#P5726, P0044). The lysate was sonicated (15 seconds, amplitude 30%, 1 cycle) and then centrifuged at 12500 rpm for 15 minutes at 4°C. The protein concentration was determined by BCA assay kit (Thermo Fisher Scientific, Cat#23225).
The western blotting was performed using Simple Western JESS (protein simple). A cell lysis sample (protein amount; about 2 µg) was loaded on a plate of Simple Western JESS, and the expression level of […] was detected using a 12-230 kDa Wes Separation Module (Protein simple, Cat#SM-WO04), an Anti-Rabbit Detection Module for Wes (Protein simple, Cat#DM-001), and a Total Protein Detection Module for Wes (Protein simple, Cat#DM-TP01). As the primary antibody, a material obtained by diluting FAK Rabbit mAb (Cell Signaling Technology, Cat#3285) at 1:100 was used, and as the secondary antibody, a material obtained by diluting HRP-labeled anti-rabbit IgG antibody (Cell Signaling Technology, Cat#7074S) at 1:250 was used. The expression level of the target protein was standardized using the total protein amount loaded as a reference. The standardized expression level data of the control (DMSO) was taken as 100%, and the degradation rate (%) was calculated from the average standardized expression level data of the test compounds (compounds of Examples 109 to 128). All analysis steps, such as data detection and analysis, are fully automated.
Target sequence in this assay (Q05397 whole entry): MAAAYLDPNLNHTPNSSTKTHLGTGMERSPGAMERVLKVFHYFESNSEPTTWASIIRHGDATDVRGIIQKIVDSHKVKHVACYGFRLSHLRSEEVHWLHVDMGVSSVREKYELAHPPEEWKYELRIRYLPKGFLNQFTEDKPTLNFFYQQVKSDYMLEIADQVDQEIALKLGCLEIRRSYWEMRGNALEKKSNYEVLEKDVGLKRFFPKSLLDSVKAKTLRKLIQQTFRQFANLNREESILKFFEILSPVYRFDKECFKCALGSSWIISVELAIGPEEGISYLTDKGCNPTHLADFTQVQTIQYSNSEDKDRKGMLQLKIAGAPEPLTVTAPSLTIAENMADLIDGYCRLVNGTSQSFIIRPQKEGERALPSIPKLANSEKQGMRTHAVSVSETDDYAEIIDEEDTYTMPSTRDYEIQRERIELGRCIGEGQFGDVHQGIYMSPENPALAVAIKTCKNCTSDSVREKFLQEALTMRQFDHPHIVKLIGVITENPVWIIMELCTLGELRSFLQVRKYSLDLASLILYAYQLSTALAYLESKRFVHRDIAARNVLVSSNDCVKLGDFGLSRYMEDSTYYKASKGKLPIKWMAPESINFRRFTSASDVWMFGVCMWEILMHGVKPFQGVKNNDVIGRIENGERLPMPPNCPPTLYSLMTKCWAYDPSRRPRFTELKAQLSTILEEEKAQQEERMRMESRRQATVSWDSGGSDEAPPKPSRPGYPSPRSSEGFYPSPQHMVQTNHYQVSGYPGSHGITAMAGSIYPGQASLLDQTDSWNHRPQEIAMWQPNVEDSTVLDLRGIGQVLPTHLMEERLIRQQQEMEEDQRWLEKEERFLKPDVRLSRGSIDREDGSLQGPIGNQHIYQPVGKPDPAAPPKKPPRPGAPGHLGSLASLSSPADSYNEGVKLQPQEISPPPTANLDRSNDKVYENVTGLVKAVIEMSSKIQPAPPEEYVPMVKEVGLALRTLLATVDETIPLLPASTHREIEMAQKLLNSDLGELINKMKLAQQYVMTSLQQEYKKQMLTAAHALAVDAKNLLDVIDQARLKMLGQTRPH

inhibition at 0.03 µM (FAK protein [1]) [%] | FAK protein degradation rate (FAK protein [2]) [%] | SMILES
≥ 75 | ≥ 75 | COC[C@H]1CN[C@H](C)CN1CC(=O)N1CC(C)(C)c2nc(CN3CCN(CCOCC(=O)Nc4ccc(Nc5ncc(C(F)(F)F)c(NCc6cccc(S(C)(=O)=O)c6)n5)cc4)CC3)c(Cc3ccc(F)cc3)cc21 [Example 115, 2-(2-(4-((6-(4-Fluorobenzyl)-1-(2-((2R,5R)-2-(methoxymethyl)-5-methylpiperazin-1-yl)acetyl)-3,3-dimethyl-2,3-dihydro-1H-pyrrolo[3,2-b]pyridin-5-yl)methyl)piperazin-1-yl)ethoxy)-N-(4-((4-((3-(methylsulfonyl)benzyl)amino)-5-(trifluoromethyl)pyrimidin-2-yl)amino)phenyl)acetamide]
≥ 75 | ≥ 75 | C[C@@H]1CN(CC(=O)N2CC(C)(C)c3ncc(Cc4ccc(F)cc4)cc32)[C@@H](CN(C)CCOCCOCCOCC(=O)Nc2ccc(Nc3ncc(C(F)(F)F)c(NCc4cccc(S(C)(=O)=O)c4)n3)cc2)CN1 [Example 111, 1-((2R,5R)-1-(2-(6-(4-Fluorobenzyl)-3,3-dimethyl-2,3-dihydro-1H-pyrrolo[3,2-b]pyridin-1-yl)-2-oxoethyl)-5-methylpiperazin-2-yl)-2-methyl-N-(4-((4-((3-(methylsulfonyl)benzyl)amino)-5-(trifluoromethyl)pyrimidin-2-yl)amino)phenyl)-5,8,11-trioxa-2-azatridecan-13-amide]
